Results on one compound are retold here after patent US4180559A, “Coated 1-(2-chlorodibenzo[b,f]oxepin-10-yl)-4-methylpiperazine compositions” (Richardson-Merrell Inc., priority 1978, dated 1979).

Converted amounts (≈) assume the structure as drawn. “Also recorded” adds a separate entry of the source. Where two headings read alike, the source gives them in different places.

The nature of series [1]: Solubility of the compound in aqueous solutions and in 50% methanol-water at various pH. The class given is physicochemical. The text has this:
On the other hand, if the drug is exposed to the relatively alkaline portions of the intestinal tract, i.e., a pH greater than 7.5, the drug remains undissolved and is unavailable for absorption in humans.

The nature of series [2]: Acid hydrolysis / half-life of the compound at various pH and temperature. As to conditions: for half-life: 50% methanol-water. The series is classed as physicochemical. The source says:
However, paradoxically, under the acidic conditions of maximum dissolution and absorption, the drug substance is itself the most labile from a chemical point of view. As previously indicated, the compound belongs to a class of enamines that are readily hydrolyzed under acidic aqueous conditions.

Series [3] is described as follows: Anti-psychotic properties and liabilities (general statement).
Series [4] in a line: Absorption into the bloodstream (general statement). The note with it: uncoated drug; degradation at low pH in the stomach.

Consider `CN1CCN(C2=Cc3cc(Cl)ccc3Oc3ccccc32)CC1` [1-(2-Chlorodibenzo[b,f]oxepin-10-yl)-4-methylpiperazine], for which the solubility (commonly the concentration that dissolves in the medium under given conditions) is “totally insoluble” in series [1] (50% methanol-water system, pH 8.0); 20000 µg/mL (≈ 61.2 mM) in series [1] (aqueous solution, pH 1.0, read-out: solubility); 15000 µg/mL (≈ 45.9 mM) in series [1] (aqueous solution, pH 3.0, read-out: solubility); 4000 µg/mL (≈ 12.2 mM) in series [1] (aqueous solution, pH 4.3, read-out: solubility); “insoluble” in series [1] (aqueous solutions, pH greater than 7.5); 2000 µg/mL (≈ 6.12 mM) in series [1] (organic solvent or mixture, 50% methanol-water system, pH 7.0, read-out: solubility). The half-life (in general, the time in which the quantity being followed falls by half) is 0.12 h in series [2] (pH 1.5, 25° C., pH 1.5, 50% (v/v) methanol-water); 0.12 h in series [2] (pH 1.5, 37° C., pH 1.5); 269 h in series [2] (pH 6, 25° C., pH 6.0, 50% (v/v) methanol-water); 159 h in series [2] (pH 6, 37° C., pH 6.0). Besides, the acid lability entry in series [2] (aqueous conditions) is reported as “high degree of acid lability”. In series [3], the anti-psychotic properties entry is “potent anti-psychotic properties; also recorded: particularly useful antipsychotic properties”. The cardiovascular liabilities entry in series [3] is “minimal”. Further, in series [3], the extrapyramidal liabilities result is on record as “minimal”. Also, the “absorption into the bloodstream” value in series [4] is “poor and erratic absorption”.
